Results from PubChem BioAssay AID248 (DTP/NCI, 2004).
Several values for one entry are separate records, joined by “and”; a condition that tells them apart may be missing. Equal entries are not always repeated. Inconclusive results and toxic doses are left out. No stated cut-off is given here; in the data, active means T/C of 150% or more; inactive means T/C below 125%.

System: L1210 leukemia ip in BDF1 mice, survival T/C
Assay: NCI In Vivo Anticancer Drug Screen. Data for tumor model L1210 Leukemia (intraperitoneal) in B6D2F1 (BDF1) mice
Conditions: endpoint: mean survival time, higher = longer survival
How it was run: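 Antitumor effect is assessed in tumor-bearing animals. Survival in the compound arm is compared with a vehicle-dosed control arm and expressed as their quotient.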

[1] = dose: 50.0 mg/kg/injection, schedule: Q04DX002 (ip), vehicle: Klucel (hydroxypropylcellulose) (HPC)
[2] = dose: 100.0 mg/kg/injection, schedule: Q04DX002 (ip), vehicle: Klucel (hydroxypropylcellulose) (HPC)
[3] = dose: 200.0 mg/kg/injection, schedule: Q04DX002 (ip), vehicle: Klucel (hydroxypropylcellulose) (HPC)
[4] = dose: 400.0 mg/kg/injection, schedule: Q04DX002 (ip), vehicle: Klucel (hydroxypropylcellulose) (HPC)
[5] = dose: 100.0 mg/kg/injection, schedule: Q01DX009 (ip), vehicle: saline with Tween-80
[6] = dose: 100.0 mg/kg/injection, schedule: Q04DX003 (ip), vehicle: saline with Tween-80
[7] = dose: 200.0 mg/kg/injection, schedule: Q01DX009 (ip), vehicle: saline with Tween-80
[8] = dose: 200.0 mg/kg/injection, schedule: Q04DX003 (ip), vehicle: saline with Tween-80
[9] = dose: 400.0 mg/kg/injection, schedule: Q01DX009 (ip), vehicle: saline with Tween-80
[10] = dose: 400.0 mg/kg/injection, schedule: Q04DX003 (ip), vehicle: saline with Tween-80
[11] = dose: 100.0 mg/kg/injection, schedule: Q01DX001 (ip), vehicle: saline

Measured: T/C

COC1OC2COC(c3ccccc3)OC2C(O)C1OC(N)=S (stereo not given)
inactive: dose: 25.0 mg/kg/injection, schedule: Q04DX002 (ip), vehicle: Klucel (hydroxypropylcellulose) (HPC) 98 % of control | [1] 98 % of control | [2] 88 % of control | [3] 100 % of control | [4] 96 % of control

Fc1cccc2c1[nH]c1cc3ccncc3cc12
inactive: dose: 100.0 mg/kg/injection, schedule: Q04DX003 (ip), vehicle: Klucel (hydroxypropylcellulose) (HPC) 98 % of control | dose: 200.0 mg/kg/injection, schedule: Q04DX003 (ip), vehicle: Klucel (hydroxypropylcellulose) (HPC) 90 % of control | dose: 400.0 mg/kg/injection, schedule: Q04DX003 (ip), vehicle: Klucel (hydroxypropylcellulose) (HPC) 93 % of control

COc1ccc(NC(=O)Nc2ccccc2)cc1
inactive: [1] 105 % of control | [2] 98 % of control and 102 % of control | [3] 99 % of control | [4] 91 % of control

Cc1ccc(S(=O)(=O)N2CC(O)CC2C(=O)O)cc1 (stereo not given)
inactive: [5] 96 % of control | [6] 93 % of control and 100 % of control | [7] 101 % of control | [8] 95 % of control and 103 % of control | [9] 101 % of control | [10] 93 % of control and 96 % of control

O=[N+]([O-])c1ccc(-c2cc3ccccc3nc2Cl)cc1
inactive: [11] 92 % of control | dose: 200.0 mg/kg/injection, schedule: Q01DX001 (ip), vehicle: saline 90 % of control | dose: 400.0 mg/kg/injection, schedule: Q01DX001 (ip), vehicle: saline 101 % of control

c1ccc(CCCn2cnc3cnccc32)cc1
inactive: dose: 5.0 mg/kg/injection, schedule: Q01DX001 (ip), vehicle: saline 100 % of control | dose: 10.0 mg/kg/injection, schedule: Q01DX001 (ip), vehicle: saline 103 % of control | dose: 20.0 mg/kg/injection, schedule: Q01DX001 (ip), vehicle: saline 105 % of control | dose: 40.0 mg/kg/injection, schedule: Q01DX001 (ip), vehicle: saline 100 % of control | [11] 96 % of control

CCN(CC)CC(=O)NCC(CCN(C)C)(c1cccc2ccccc12)C(C)C (stereo not given)
inactive: dose: 100.0 mg/kg/injection, schedule: Q04DX003 (ip), vehicle: saline 102 % of control | dose: 200.0 mg/kg/injection, schedule: Q04DX003 (ip), vehicle: saline 93 % of control

CCC(C)c1ccc(O)c(C(C)CC)c1 (stereo not given)
inactive: [5] 106 % of control | [6] 106 % of control | [7] 101 % of control | [8] 101 % of control | [9] 102 % of control | [10] 94 % of control

CCC1COC(=S)N1 (stereo not given)
inactive: dose: 6.25 mg/kg/injection, schedule: Q01DX001 (ip), vehicle: Klucel (hydroxypropylcellulose) (HPC) 93 % of control | dose: 6.25 mg/kg/injection, schedule: Q01DX009 (ip), vehicle: saline 91 % of control | dose: 12.5 mg/kg/injection, schedule: Q01DX001 (ip), vehicle: Klucel (hydroxypropylcellulose) (HPC) 108 % of control | dose: 12.5 mg/kg/injection, schedule: Q01DX009 (ip), vehicle: saline 105 % of control | dose: 25.0 mg/kg/injection, schedule: Q01DX001 (ip), vehicle: Klucel (hydroxypropylcellulose) (HPC) 100 % of control | dose: 25.0 mg/kg/injection, schedule: Q04DX002 (ip), vehicle: saline with Tween-80 103 % of control

Cc1ccccc1N=C(N)Nc1ccccc1C
inactive: dose: 2.5 mg/kg/injection, schedule: Q01DX009 (ip), vehicle: saline with Tween-80 103 % of control | dose: 5.0 mg/kg/injection, schedule: Q01DX001 (ip), vehicle: carboxymethylcellulose (CMC) 108 % of control | dose: 5.0 mg/kg/injection, schedule: Q01DX009 (ip), vehicle: saline with Tween-80 97 % of control | dose: 6.25 mg/kg/injection, schedule: Q01DX009 (ip), vehicle: other 95 % of control | dose: 6.25 mg/kg/injection, schedule: Q04DX003 (ip), vehicle: other 96 % of control | dose: 10.0 mg/kg/injection, schedule: Q01DX001 (ip), vehicle: carboxymethylcellulose (CMC) 114 % of control | dose: 10.0 mg/kg/injection, schedule: Q01DX009 (ip), vehicle: saline with Tween-80 97 % of control | dose: 12.5 mg/kg/injection, schedule: Q01DX001 (ip), vehicle: other 96 % of control | dose: 12.5 mg/kg/injection, schedule: Q01DX009 (ip), vehicle: other 95 % of control | dose: 12.5 mg/kg/injection, schedule: Q04DX003 (ip), vehicle: other 93 % of control | dose: 20.0 mg/kg/injection, schedule: Q01DX001 (ip), vehicle: carboxymethylcellulose (CMC) 117 % of control | dose: 25.0 mg/kg/injection, schedule: Q01DX001 (ip), vehicle: other 96 % of control | dose: 25.0 mg/kg/injection, schedule: Q01DX009 (ip), vehicle: other 94 % of control | dose: 25.0 mg/kg/injection, schedule: Q04DX003 (ip), vehicle: other 100 % of control

CC[N-]c1nncs1.CC[N-]c1nncs1.CC[N-]c1nncs1.CC[N-]c1nncs1.[Cl][Rh][Cl]
inactive: dose: 3.13 mg/kg/injection, schedule: Q04DX003 (ip), vehicle: distilled water + Tween-80 101 % of control | dose: 6.25 mg/kg/injection, schedule: Q04DX003 (ip), vehicle: distilled water + Tween-80 104 % of control | dose: 12.5 mg/kg/injection, schedule: Q04DX003 (ip), vehicle: distilled water + Tween-80 98 % of control | dose: 25.0 mg/kg/injection, schedule: Q04DX003 (ip), vehicle: distilled water + Tween-80 92 % of control | dose: 50.0 mg/kg/injection, schedule: Q04DX003 (ip), vehicle: distilled water + Tween-80 93 % of control | dose: 100.0 mg/kg/injection, schedule: Q04DX003 (ip), vehicle: distilled water + Tween-80 104 % of control

COC(=O)c1ccccc1N=NNc1ccc(C)c(Cl)c1
inactive: dose: 100.0 mg/kg/injection, schedule: Q04DX002 (ip), vehicle: saline with Tween-80 94 % of control | dose: 200.0 mg/kg/injection, schedule: Q04DX002 (ip), vehicle: saline with Tween-80 94 % of control | dose: 400.0 mg/kg/injection, schedule: Q04DX002 (ip), vehicle: saline with Tween-80 87 % of control

O=C(Nc1ccc(C(=O)O)cc1)Nc1cc(C(F)(F)F)ccc1Cl
inactive: dose: 100.0 mg/kg/injection, schedule: Q01DX001 (ip), vehicle: carboxymethylcellulose (CMC) 93 % of control | dose: 100.0 mg/kg/injection, schedule: Q01DX009 (ip), vehicle: carboxymethylcellulose (CMC) 95 % of control and 110 % of control | dose: 100.0 mg/kg/injection, schedule: Q04DX002 (ip), vehicle: carboxymethylcellulose (CMC) 95 % of control and 97 % of control | dose: 100.0 mg/kg/injection, schedule: Q04DX003 (ip), vehicle: carboxymethylcellulose (CMC) 94 % of control | dose: 200.0 mg/kg/injection, schedule: Q01DX001 (ip), vehicle: carboxymethylcellulose (CMC) 93 % of control | dose: 200.0 mg/kg/injection, schedule: Q01DX009 (ip), vehicle: carboxymethylcellulose (CMC) 100 % of control and 90 % of control | dose: 200.0 mg/kg/injection, schedule: Q04DX002 (ip), vehicle: carboxymethylcellulose (CMC) 93 % of control and 97 % of control | dose: 200.0 mg/kg/injection, schedule: Q04DX003 (ip), vehicle: carboxymethylcellulose (CMC) 97 % of control | dose: 400.0 mg/kg/injection, schedule: Q01DX001 (ip), vehicle: carboxymethylcellulose (CMC) 93 % of control | dose: 400.0 mg/kg/injection, schedule: Q01DX009 (ip), vehicle: carboxymethylcellulose (CMC) 92 % of control | dose: 400.0 mg/kg/injection, schedule: Q04DX002 (ip), vehicle: carboxymethylcellulose (CMC) 96 % of control and 90 % of control | dose: 400.0 mg/kg/injection, schedule: Q04DX003 (ip), vehicle: carboxymethylcellulose (CMC) 96 % of control
